We go through 20 molecules from patent US20250282794A1 (CURADEV PHARMA LTD, priority 2022, published 2025).

The target in the assay is recombinant full length HPK-1 enzyme (Homo sapiens (Human), UniProt Q92918). Description: HPK-1 biochemical enzyme assay (ADP-Glo kinase inhibition). Conditions: recombinant full length HPK-1 6.8 nM, 10 μM ATP, 12.5 μM MBP, 30 mins at 25° C. An outline of the steps: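 Recombinant full-length human HPK-1 (6.8 nM) incubated 30 min at 25° C. with 10 μM ATP and 12.5 μM swine MBP in 40 mM Tris pH 7.4, 20 mM MgCl2, 50 μM DTT, 0.1 mg/mL BSA. ADP measured by ADP-Glo; IC50 from 10 concentrations, normalized to no-enzyme and vehicle controls.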
Sequence of recombinant full length HPK-1 enzyme (Q92918 whole entry, species assumed): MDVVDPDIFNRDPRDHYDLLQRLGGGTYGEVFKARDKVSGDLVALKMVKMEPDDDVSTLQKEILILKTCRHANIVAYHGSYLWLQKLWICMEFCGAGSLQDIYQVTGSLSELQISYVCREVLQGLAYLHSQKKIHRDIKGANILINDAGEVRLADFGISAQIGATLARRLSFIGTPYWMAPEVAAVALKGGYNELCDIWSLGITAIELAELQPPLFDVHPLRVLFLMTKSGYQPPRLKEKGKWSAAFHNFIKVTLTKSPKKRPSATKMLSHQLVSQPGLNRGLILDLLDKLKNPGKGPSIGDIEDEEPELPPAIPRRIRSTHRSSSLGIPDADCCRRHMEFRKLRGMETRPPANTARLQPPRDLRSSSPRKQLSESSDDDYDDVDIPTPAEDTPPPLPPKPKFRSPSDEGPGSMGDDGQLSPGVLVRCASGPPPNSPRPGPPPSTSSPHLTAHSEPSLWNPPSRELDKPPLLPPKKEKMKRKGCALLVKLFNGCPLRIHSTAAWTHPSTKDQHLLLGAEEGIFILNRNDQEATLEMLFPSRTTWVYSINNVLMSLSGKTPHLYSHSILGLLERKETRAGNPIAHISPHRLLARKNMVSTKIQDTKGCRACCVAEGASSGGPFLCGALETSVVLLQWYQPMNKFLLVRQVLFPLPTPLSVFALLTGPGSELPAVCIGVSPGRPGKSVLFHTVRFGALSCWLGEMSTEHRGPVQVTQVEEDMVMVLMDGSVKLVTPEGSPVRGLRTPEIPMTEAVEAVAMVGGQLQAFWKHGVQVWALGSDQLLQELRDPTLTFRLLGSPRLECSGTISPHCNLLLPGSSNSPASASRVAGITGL

Turning to `Cc1c(Nc2cc[nH]c(=O)c2C(=O)Nc2ccc(N3CCN(C)C[C@H]3C)cc2)cnc2c1NCCO2` [Example 241, (R)-N-(4-(2,4-dimethylpiperazin-1-yl)phenyl)-4-((8-methyl-2,3-dihydro-1H-pyrido[2,3-b][1,4]oxazin-7-yl)amino)-2-oxo-1,2-dihydropyridine-3-carboxamide], the IC50 was at most 10 nM.
`Cc1c(Nc2cc[nH]c(=O)c2C(=O)Nc2ccc(C(N)=O)cc2)cnc2c1NCCO2` [Example 242, N-(4-carbamoylphenyl)-4-((8-methyl-2,3-dihydro-1H-pyrido[2,3-b][1,4]oxazin-7-yl)amino)-2-oxo-1,2-dihydropyridine-3-carboxamide]: the 50% inhibitory concentration (IC50) fell in the range of 10 to 100 nM.
As to `CC(=O)Nc1ccc(NC(=O)c2c(Nc3cnc4c(c3C)NCCO4)cc[nH]c2=O)cn1` [Example 243, N-(6-acetamidopyridin-3-yl)-4-((8-methyl-2,3-dihydro-1H-pyrido[2,3-b][1,4]oxazin-7-yl)amino)-2-oxo-1,2-dihydropyridine-3-carboxamide], the IC50 was in the range of 100 to 1000 nM.
In the case of `Cc1c(Nc2cc[nH]c(=O)c2C(=O)Nc2ccc3c(c2)OCO3)cnc2c1NCCO2` [Example 244, N-(benzo[d][1,3]dioxol-5-yl)-4-((8-methyl-2,3-dihydro-1H-pyrido[2,3-b][1,4]oxazin-7-yl)amino)-2-oxo-1,2-dihydropyridine-3-carboxamide], the IC50 fell in the range of 10 to 100 nM.
Regarding `Cc1c(Nc2cc[nH]c(=O)c2C(=O)Nc2cccc(S(=O)(=O)CCO)c2)cnc2c1NCCO2` [Example 245, N-(3-((2-hydroxyethyl)sulfonyl)phenyl)-4-((8-methyl-2,3-dihydro-1H-pyrido[2,3-b][1,4]oxazin-7-yl)amino)-2-oxo-1,2-dihydropyridine-3-carboxamide], the IC50 was 100 to 1000 nM.
For the molecule `Cc1c(Nc2cc[nH]c(=O)c2C(=O)Nc2ccc3c(c2)NCCC3)cnc2c1NCCO2` [Example 246, 4-((8-methyl-2,3-dihydro-1H-pyrido[2,3-b][1,4]oxazin-7-yl)amino)-2-oxo-N-(1,2,3,4-tetrahydroquinolin-7-yl)-1,2-dihydropyridine-3-carboxamide], the IC50 was 10 to 100 nM.
With `Cc1c(Nc2cc[nH]c(=O)c2C(=O)Nc2ccc(N3CCC(C(N)=O)CC3)cc2)cnc2c1NCCO2` [Example 247, N-(4-(4-carbamoylpiperidin-1-yl)phenyl)-4-((8-methyl-2,3-dihydro-1H-pyrido[2,3-b][1,4]oxazin-7-yl)amino)-2-oxo-1,2-dihydropyridine-3-carboxamide] the figure was at most 10 nM.
To `Cc1c(Nc2cc[nH]c(=O)c2C(=O)Nc2ccc3ncsc3c2)cnc2c1NCCO2` [Example 248, N-(benzo[d]thiazol-6-yl)-4-((8-methyl-2,3-dihydro-1H-pyrido[2,3-b][1,4]oxazin-7-yl)amino)-2-oxo-1,2-dihydropyridine-3-carboxamide] belongs 10 to 100 nM.
On to `Cc1nc2ccc(NC(=O)c3c(Nc4cnc5c(c4C)NCCO5)cc[nH]c3=O)cc2s1` [Example 249, 4-((8-methyl-2,3-dihydro-1H-pyrido[2,3-b][1,4]oxazin-7-yl)amino)-N-(2-methylbenzo[d]thiazol-6-yl)-2-oxo-1,2-dihydropyridine-3-carboxamide], for which the IC50 fell in the range of 10 to 100 nM.
With `Cc1c(Nc2cc[nH]c(=O)c2C(=O)Nc2ccc3c(c2)CCC(=O)N3C)cnc2c1NCCO2` [Example 250, 4-((8-methyl-2,3-dihydro-1H-pyrido[2,3-b][1,4]oxazin-7-yl)amino)-N-(1-methyl-2-oxo-1,2,3,4-tetrahydroquinolin-6-yl)-2-oxo-1,2-dihydropyridine-3-carboxamide] the figure was 10 to 100 nM; with `CCC(=O)N1CCN(c2ccc(NC(=O)c3c(Nc4cnc5c(c4C)NCCO5)cc[nH]c3=O)cc2)CC1` [Example 251, 4-((8-methyl-2,3-dihydro-1H-pyrido[2,3-b][1,4]oxazin-7-yl)amino)-2-oxo-N-(4-(4-propionylpiperazin-1-yl)phenyl)-1,2-dihydropyridine-3-carboxamide], at most 10 nM.
Take `Cc1c(Nc2cc[nH]c(=O)c2C(=O)Nc2ccc3c(c2)CCC(=O)N3)cnc2c1NCCO2` [Example 252, 4-((8-methyl-2,3-dihydro-1H-pyrido[2,3-b][1,4]oxazin-7-yl)amino)-2-oxo-N-(2-oxo-1,2,3,4-tetrahydroquinolin-6-yl)-1,2-dihydropyridine-3-carboxamide]: the IC50 was in the range of 10 to 100 nM.
With `COc1ccc(Oc2ccc(NC(=O)c3c(Nc4cnc5c(c4C)NCCO5)cc[nH]c3=O)cc2)cc1` [Example 253, N-(4-(4-methoxyphenoxy)phenyl)-4-((8-methyl-2,3-dihydro-1H-pyrido[2,3-b][1,4]oxazin-7-yl)amino)-2-oxo-1,2-dihydropyridine-3-carboxamide], the IC50 was 100 to 1000 nM.
Consider `Cc1c(Nc2cc[nH]c(=O)c2C(=O)Nc2ccc3c(c2)CCCN3)cnc2c1NCCO2` [Example 254, 4-((8-methyl-2,3-dihydro-1H-pyrido[2,3-b][1,4]oxazin-7-yl)amino)-2-oxo-N-(1,2,3,4-tetrahydroquinolin-6-yl)-1,2-dihydropyridine-3-carboxamide], for which the IC50 lay in the range of 10 to 100 nM.
For the molecule `Cc1c(Nc2cc[nH]c(=O)c2C(=O)Nc2ccc(-n3ccnc3)cc2)cnc2c1NCCO2` [Example 255, N-(4-(1H-imidazol-1-yl)phenyl)-4-((8-methyl-2,3-dihydro-1H-pyrido[2,3-b][1,4]oxazin-7-yl)amino)-2-oxo-1,2-dihydropyridine-3-carboxamide], the IC50 was 10 to 100 nM.
For the molecule `Cc1c(Nc2cc[nH]c(=O)c2C(=O)Nc2ccc(N3CCN(C4COC4)CC3)cc2)cnc2c1NCCO2` [Example 256, 4-((8-methyl-2,3-dihydro-1H-pyrido[2,3-b][1,4]oxazin-7-yl)amino)-N-(4-(4-(oxetan-3-yl)piperazin-1-yl)phenyl)-2-oxo-1,2-dihydropyridine-3-carboxamide], the IC50 was at most 10 nM.
On to `Cc1c(Nc2cc[nH]c(=O)c2C(=O)Nc2ccc3nc[nH]c3c2)cnc2c1NCCO2` [Example 257, N-(1H-benzo[d]imidazol-6-yl)-4-((8-methyl-2,3-dihydro-1H-pyrido[2,3-b][1,4]oxazin-7-yl)amino)-2-oxo-1,2-dihydropyridine-3-carboxamide], for which the IC50 was 10 to 100 nM.
Take `Cc1c(Nc2cc[nH]c(=O)c2C(=O)Nc2ccc3c(c2)NC(=O)CC3)cnc2c1NCCO2` [Example 258, 4-((8-methyl-2,3-dihydro-1H-pyrido[2,3-b][1,4]oxazin-7-yl)amino)-2-oxo-N-(2-oxo-1,2,3,4-tetrahydroquinolin-7-yl)-1,2-dihydropyridine-3-carboxamide]: the IC50 is 10 to 100 nM.
As to `Cc1c(Nc2cc[nH]c(=O)c2C(=O)Nc2ccc(N3CCN(C4CCCC4)CC3)c(F)c2)cnc2c1NCCO2` [Example 259, N-(4-(4-cyclopentylpiperazin-1-yl)-3-fluorophenyl)-4-((8-methyl-2,3-dihydro-1H-pyrido[2,3-b][1,4]oxazin-7-yl)amino)-2-oxo-1,2-dihydropyridine-3-carboxamide], the IC50 was at most 10 nM.
For `Cc1c(Nc2cc[nH]c(=O)c2C(=O)Nc2ccc3c(c2)C(=O)NCC3)cnc2c1NCCO2` [Example 260, 4-((8-methyl-2,3-dihydro-1H-pyrido[2,3-b][1,4]oxazin-7-yl)amino)-2-oxo-N-(1-oxo-1,2,3,4-tetrahydroisoquinolin-7-yl)-1,2-dihydropyridine-3-carboxamide], the IC50 fell in the range of 100 to 1000 nM.
